The source made the active and inactive calls. Rule as the data show it: actives have a measured IC50 and inactives only a lower limit.

In the assay the target is Envelope glycoprotein gp160 (Human immunodeficiency virus 1, UniProt Q6QLK5). Nature of the assay: inhibitors of HIV fusion peptide binding, primary screen, biochemical, uHTS, fluorescence dequenching (AID 1986).
Envelope glycoprotein gp160, sequence (Q6QLK5 whole entry, the tested form may be a part): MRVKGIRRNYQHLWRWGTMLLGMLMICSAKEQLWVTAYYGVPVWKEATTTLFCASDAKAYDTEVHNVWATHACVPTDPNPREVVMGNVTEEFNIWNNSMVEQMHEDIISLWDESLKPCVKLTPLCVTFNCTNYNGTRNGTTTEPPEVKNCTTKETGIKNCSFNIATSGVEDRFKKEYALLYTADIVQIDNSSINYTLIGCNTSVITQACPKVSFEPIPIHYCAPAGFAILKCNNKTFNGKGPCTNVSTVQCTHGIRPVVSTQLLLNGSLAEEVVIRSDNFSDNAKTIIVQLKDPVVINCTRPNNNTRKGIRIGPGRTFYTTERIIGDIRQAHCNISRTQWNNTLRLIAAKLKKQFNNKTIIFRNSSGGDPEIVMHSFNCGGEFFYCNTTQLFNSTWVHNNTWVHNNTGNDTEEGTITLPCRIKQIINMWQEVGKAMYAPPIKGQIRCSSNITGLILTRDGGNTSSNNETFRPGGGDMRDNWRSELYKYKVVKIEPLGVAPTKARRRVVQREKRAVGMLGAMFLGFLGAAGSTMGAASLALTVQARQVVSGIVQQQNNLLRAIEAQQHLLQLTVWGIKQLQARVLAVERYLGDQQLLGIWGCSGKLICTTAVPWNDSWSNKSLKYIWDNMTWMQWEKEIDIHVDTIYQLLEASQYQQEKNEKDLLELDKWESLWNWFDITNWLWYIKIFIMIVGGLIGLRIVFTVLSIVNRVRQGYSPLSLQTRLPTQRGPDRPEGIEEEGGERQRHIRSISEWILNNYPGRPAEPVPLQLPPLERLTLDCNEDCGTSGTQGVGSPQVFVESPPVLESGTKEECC
As a reminder, the IC50 is the concentration at which inhibition is half-maximal. In the case of `COc1cccc(NS(=O)(=O)c2ccc3c(c2)C2C=CCC2C(c2ccc(C(=O)O)cc2)N3)c1` (stereo not drawn), the IC50 was 11.9 µM (active).
In the case of `COc1ccc(-c2nn(-c3ccccc3)cc2/C=C2/SC(=S)N(CCC(=O)O)C2=O)c(C)c1`, the IC50 is 12.5 µM (active).
Regarding `CCS(=O)(=O)C1=NN2C(=N)/C(=C\c3ccc(OCCOc4cccc(OC)c4)c(OC)c3)C(=O)N=C2S1`, the IC50 was 9.24 µM (active).

Values taken from ChEMBL document CHEMBL1201862, “PubChem BioAssay data set” (2004).
